Results: the RepoRT retention time repository (doi:10.1016/j.foodchem.2021.129757)
Values belong to the molecule of their own block, whether it stands above or below them.

How the values were obtained:
Conditions in all cases: stereoisomer not certain
[1] = RP, 150 × 2.1 mm, 2.6 µm, 40 °C, 0.35 mL/min, estimated dead time 0.94 min; A: water + 0.1% formic acid, pH 3; B: acetonitrile + 0.1% formic acid, pH 3; gradient (min/%B) 0/0 1/5 7/45 8.5/80 10.5/80 11/5 12/5
[2] = RP, 150 × 2.1 mm, 2.6 µm, 40 °C, 0.35 mL/min, estimated dead time 0.94 min; A: water + 0.1% formic acid, pH 3; B: acetonitrile + 0.1% formic acid, pH 3; gradient (min/%B) 0/0 1/0 12.5/100 14/100 14.2/0 15/0
[3] = RP, Phenomenex Kinetex EVO C18, 100 × 2.1 mm, 2.6 µm, 40 °C, 0.4 mL/min, estimated dead time 0.55 min; A: water + 0.2% formic acid; B: acetonitrile + 0.2% formic acid; gradient (min/%B) 0/5 0.5/5 7/95 8/95 8.5/5 12/5
[4] = RP, Merck Supelco SUPELCOSIL LC-C18, 250 × 4.6 mm, 5 µm, 40 °C, 1 mL/min, estimated dead time 2.6 min; A: water + 0.1% trifluoroacetic acid, pH 2; B: acetonitrile + 0.1% trifluoroacetic acid, pH 2; gradient (min/%B) 0/5 45/35 47/75 49/35 50/5
[5] = RP, Waters Atlantis T3, 100 × 2.1 mm, 3 µm, 40 °C, 0.3 mL/min, estimated dead time 0.73 min; A: water + 0.1% trifluoroacetic acid, pH 2; B: acetonitrile + 0.1% trifluoroacetic acid, pH 2; gradient (min/%B) 0/10 1/10 6/40 7/50 8/50 14/70 16/80 20/10 25/10
[6] = Other, Phenomenex Kinetex PFP, 100 × 4.6 mm, 5 µm, 45 °C, 0.6 mL/min, estimated dead time 1.8 min; A: water + 0.1% trifluoroacetic acid, pH 2; B: methanol; gradient (min/%B) 0/40 20/72 21/40
[7] = RP, Waters ACQUITY UPLC HSS T3, 100 × 2.1 mm, 50 °C; A: water + 0.1% formic acid, pH 3; B: 30% methanol + 70% acetonitrile + 0.1% formic acid, pH 3; gradient (min/%B) 0/5 1/8 2/15 3/40 4/70 4.5/100 5/100 6.4/100 6.6/5 6.8/5 7/5
[8] = RP, Agilent ZORBAX RRHD Eclipse Plus C18, 50 × 2.1 mm, 1.8 µm, 30 °C, 0.4 mL/min, estimated dead time 0.28 min; A: water + 0.1% formic acid, pH 3; B: acetonitrile + 0.1% formic acid, pH 3; gradient (min/%B) 0/1 5/10 8/25 9.1/99 10/99 12/99
[9] = RP, Agilent ZORBAX RRHD Eclipse Plus C18, 50 × 2.1 mm, 1.8 µm, 30 °C, 0.4 mL/min, estimated dead time 0.28 min; A: water + 0.1% formic acid, pH 3; B: acetonitrile + 0.1% formic acid, pH 3; gradient (min/%B) 0/1 5/10 8/25 9.1/99 10/99 12/1
[10] = RP, Phenomenex Synergi Hydro-RP, 250 × 2 mm, 4 µm, 25 °C, 0.2 mL/min, estimated dead time 2.5 min; A: water + 0.1% formic acid, pH 3; B: acetonitrile + 0.1% formic acid, pH 3; gradient (min/%B) 0/0.5 7/0.5 12/12.5 25/16.3 47/35 48/65 50/65 50.1/0.5
[11] = RP, Agilent InfinityLab Poroshell 120 EC-C18, 100 × 3 mm, 2.7 µm, 25 °C, 0.4 mL/min, estimated dead time 1.1 min; A: water + 0.1% formic acid, pH 3; B: acetonitrile + 0.1% formic acid, pH 3; gradient (min/%B) 0/5 10/25 20/40 24/90 25/90 26/5 30/5
[12] = RP, Merck LiChrospher RP-18, 250 × 4 mm, 5 µm, 35 °C, 0.3 mL/min, estimated dead time 6.7 min; A: water + 0.5% formic acid; B: acetonitrile + 0.5% formic acid; gradient (min/%B) 0/5 10/5 30/15 45/20 65/20 95/54 110/63 115/5 135/5
[13] = RP, Waters ACQUITY UPLC BEH C18, 100 × 2.1 mm, 1.7 µm, 65 °C, 0.4 mL/min, estimated dead time 0.55 min; A: water + 0.1% formic acid, pH 3; B: 80% acetonitrile + 20% acetone + 0.1% formic acid, pH 3; gradient (min/%B) 0/0 5/100 5.5/0 6/0
[14] = RP, Waters ACQUITY UPLC BEH Shield RP18, 150 × 2.1 mm, 1.7 µm, 40 °C, 0.4 mL/min, estimated dead time 0.83 min; A: water + 0.1% formic acid, pH 3; B: acetonitrile + 0.1% formic acid, pH 3; gradient (min/%B) 0/0 30/50 31/100 37/100 37.1/0
[15] = RP, Agilent ZORBAX Eclipse XDB-C18, 100 × 2.1 mm, 1.8 µm, 50 °C, 0.4 mL/min, estimated dead time 0.55 min; A: water + 0.1% formic acid, pH 3; B: methanol + 0.1% formic acid, pH 3; gradient (min/%B) 0/2 10/100 14.5/100 14.51/2 16.5/2
[16] = RP, Waters ACQUITY UPLC HSS T3, 100 × 2.1 mm, 1.8 µm, 30 °C, 0.4 mL/min, estimated dead time 0.55 min; A: water + 0.1% formic acid, pH 3; B: acetonitrile + 0.1% formic acid, pH 3; gradient (min/%B) 0/0 2/0 15/100 22/100 22.1/0 26/0

SMILES: O=C(OC1Cc2c(O)cc(O)cc2OC1c1cc(O)c(O)c(O)c1)c1cc(O)c(O)c(O)c1 (single isomer, unassigned; (-)) [(-)-Epigallocatechin gallate]
LC retention time [1]: 5.02 min
LC retention time [2]: 5.08 min
LC retention time [3]: 4.38 min
LC retention time [4]: 16.9 min
LC retention time [5]: 6.14 min

SMILES: O=C(C=Cc1ccc(O)c(O)c1)OC1CC(OC(=O)C=Cc2ccc(O)c(O)c2)(C(=O)O)CC(O)C1O (stereo unspecified) [1,3-dicaffeoylquinic acid]
LC retention time [4]: 19.1 min

SMILES: O=C(O)C=Cc1ccc(O)cc1O [2,4-Dihydroxycinnamic acid]
LC retention time [6]: 5.73 min
LC retention time [7]: 3.08 min

SMILES: O=C(O)c1cccc(O)c1 [3-Hydroxybenzoic acid]
LC retention time [8]: 4.26 min
LC retention time [9]: 5.36 min
LC retention time [6]: 5.57 min
LC retention time [10]: 22.7 min
LC retention time [5]: 5.01 min

SMILES: O=c1cc(-c2ccccc2)oc2cc(O)cc(O)c12 [Chrysin]
LC retention time [11]: 22.2 min
LC retention time [4]: 39.4 min

SMILES: O=C(O)C=Cc1ccccc1 [Cinnamic acid-trans]
LC retention time [12]: 92.9 min
LC retention time [13]: 2.79 min
LC retention time [9]: 9.09 min
LC retention time [14]: 16.2 min
LC retention time [10]: 46.7 min
LC retention time [15]: 6.27 min
LC retention time [7]: 2.74 min
LC retention time [4]: 35.6 min

SMILES: O=C(C=Cc1ccc(O)c(O)c1)OC1C(O)CC(O)(C(=O)O)CC1O (stereo unspecified) [Cryptochlorogenic acid]
LC retention time [1]: 4.45 min
LC retention time [2]: 4.63 min
LC retention time [4]: 14.1 min

SMILES: OCC1OC(Oc2cc3c(OC4OC(CO)C(O)C(O)C4O)cc(O)cc3[o+]c2-c2ccc(O)c(O)c2)C(O)C(O)C1O (stereo unspecified) [Cyanidin-3,5-O-diglucoside]
LC retention time [4]: 16.4 min

SMILES: O=c1c(-c2ccc(O)cc2)coc2cc(O)ccc12 [Daidzein]
LC retention time [16]: 10.7 min
LC retention time [13]: 2.53 min
LC retention time [14]: 17.9 min
LC retention time [11]: 12.9 min
LC retention time [4]: 34.6 min

SMILES: O=C(OC1Cc2c(O)cc(O)cc2OC1c1ccc(O)c(O)c1)c1cc(O)c(O)c(O)c1 (stereo unspecified) [Epicatechin gallate]
LC retention time [16]: 9.36 min
LC retention time [12]: 58.6 min
LC retention time [1]: 5.72 min
LC retention time [2]: 5.67 min
LC retention time [6]: 5.76 min

SMILES: O=C1CC(c2ccc(O)c(O)c2)Oc2cc(O)cc(O)c21 (stereo unspecified) [Eriodictyol]
LC retention time [16]: 10.9 min
LC retention time [12]: 88.7 min
LC retention time [1]: 7.21 min
LC retention time [13]: 2.59 min
LC retention time [2]: 6.95 min
LC retention time [6]: 15.4 min
LC retention time [11]: 13.7 min

SMILES: O=c1c(O)c(-c2ccc(O)c(O)c2)oc2cc(O)ccc12 [Fisetin]
LC retention time [16]: 10.2 min
LC retention time [4]: 30.9 min

SMILES: O=C(O)c1cc(O)ccc1O [Gentisic acid]
LC retention time [8]: 2.82 min
LC retention time [16]: 8.3 min
LC retention time [1]: 4.37 min
LC retention time [9]: 4.25 min
LC retention time [14]: 6.28 min
LC retention time [2]: 4.7 min
LC retention time [10]: 19.9 min
LC retention time [15]: 2.85 min
LC retention time [11]: 5.44 min
LC retention time [4]: 12.5 min

SMILES: O=c1cc(-c2ccc(O)c(OS(=O)(=O)O)c2)oc2cc(O)cc(O)c12 [Luteolin 3-sulfate]
LC retention time [6]: 16.4 min

SMILES: O=c1cc(-c2ccc(OS(=O)(=O)O)c(O)c2)oc2cc(OS(=O)(=O)O)cc(O)c12 [Luteolin 7,4-disulfate]
LC retention time [6]: 11.9 min

SMILES: CC1OC(OCC2OC(Oc3cc4c(O)cc(=O)cc-4oc3-c3ccc(O)cc3)C(O)C(O)C2O)C(O)C(O)C1O (stereo unspecified) [Pelargonidin-3-O-rutinoside]
LC retention time [4]: 24.3 min

SMILES: Oc1cc(O)cc(O)c1 [Phloroglucinol]
LC retention time [6]: 2.9 min

SMILES: COc1cc(C2Oc3c(O)cc(C4Oc5cc(O)cc(O)c5C(=O)C4O)cc3C2CO)ccc1O (stereo unspecified) [Silychristin]
LC retention time [6]: 10.3 min

SMILES: COc1cc(C2C3C=C(C4Oc5cc(O)cc(O)c5C(=O)C4O)C4C2COC4(O)C3=O)ccc1O (stereo unspecified) [Silydianin]
LC retention time [6]: 21.5 min

SMILES: COc1cc(C(=O)O)cc(OC)c1O [Syringic acid]
LC retention time [1]: 4.88 min
LC retention time [13]: 1.8 min
LC retention time [2]: 5.04 min
LC retention time [10]: 23.1 min
LC retention time [7]: 3.33 min
LC retention time [11]: 6.44 min
LC retention time [4]: 15.5 min
LC retention time [5]: 5.12 min

Further lines, results first:

LC retention time [6]: 7.77 min
SMILES: O=c1c(OC2OC(CO)C(O)C(O)C2O)c(-c2ccc(OS(=O)(=O)O)c(O)c2)oc2cc(O)cc(O)c12 (stereo unspecified) [Isoquercitrin 4-O-sulfate]

LC retention time [6]: 17.1 min
SMILES: O=c1cc(-c2ccc(OS(=O)(=O)O)c(O)c2)oc2cc(O)cc(O)c12 [Luteolin 4-sulfate]

LC retention time [6]: 15.2 min
SMILES: O=c1c(O)c(-c2cc(O)c(OS(=O)(=O)O)c(O)c2)oc2cc(O)cc(O)c12 [Myricetin 4-O-sulfate]

LC retention time [4]: 23.4 min
SMILES: OCC1OC(Oc2cc3c(O)cc(O)cc3[o+]c2-c2ccc(O)cc2)C(O)C(O)C1O (stereo unspecified) [Pelargonidin-3-O-glucoside]

LC retention time [4]: 24.8 min
SMILES: COc1cc(-c2[o+]c3cc(O)cc(O)c3cc2OC2OC(CO)C(O)C(O)C2O)ccc1O (stereo unspecified) [Peonidin-3-O-glucoside]

LC retention time [4]: 22.3 min
SMILES: COc1cc(-c2[o+]c3cc(O)cc(O)c3cc2OC2OC(CO)C(O)C(O)C2O)cc(O)c1O (stereo unspecified) [Petunidin-3-O-glucoside]

LC retention time [6]: 9.23 min
SMILES: O=c1c(OC2OC(CO)C(O)C(O)C2O)c(-c2ccc(O)c(O)c2)oc2cc(O)cc(O)c12 (stereo unspecified) [Quercetin-3-O-glucoside]

LC retention time [8]: 8.38 min
LC retention time [9]: 7.9 min
LC retention time [14]: 13.7 min
LC retention time [3]: 4.92 min
LC retention time [4]: 26.2 min
SMILES: O=C(O)C1OC(Oc2c(-c3ccc(O)c(O)c3)oc3cc(O)cc(O)c3c2=O)C(O)C(O)C1O (stereo unspecified) [Quercetin-3-O-glucuronide]

LC retention time [1]: 6.17 min
LC retention time [2]: 6.01 min
LC retention time [10]: 38.3 min
LC retention time [4]: 29.4 min
SMILES: CC1OC(Oc2c(-c3ccc(O)c(O)c3)oc3cc(O)cc(O)c3c2=O)C(O)C(O)C1O (stereo unspecified) [Quercitrin]
